In ChEMBL document CHEMBL1201862, “PubChem BioAssay data set” (2004):
Values joined by “and” are separate entries in the source; they are usually repeats but may differ in a detail not shown here. Identical values can stand only once. Active and inactive are the calls of the source.

Columns and labels:
Protein RecA = target: T1, Protein RecA (Mycobacterium tuberculosis, UniProt P9WHJ3); assay: Fluorescence Cell-Free Homogeneous Dose Retest to Identify Inhibitors of RecA-Intein Splicing Activity. [Related pubchem assays (depositor defined):AID2097, AID2223, AID489010, AID492950]; type: functional
T1 sequence (P9WHJ3 whole entry): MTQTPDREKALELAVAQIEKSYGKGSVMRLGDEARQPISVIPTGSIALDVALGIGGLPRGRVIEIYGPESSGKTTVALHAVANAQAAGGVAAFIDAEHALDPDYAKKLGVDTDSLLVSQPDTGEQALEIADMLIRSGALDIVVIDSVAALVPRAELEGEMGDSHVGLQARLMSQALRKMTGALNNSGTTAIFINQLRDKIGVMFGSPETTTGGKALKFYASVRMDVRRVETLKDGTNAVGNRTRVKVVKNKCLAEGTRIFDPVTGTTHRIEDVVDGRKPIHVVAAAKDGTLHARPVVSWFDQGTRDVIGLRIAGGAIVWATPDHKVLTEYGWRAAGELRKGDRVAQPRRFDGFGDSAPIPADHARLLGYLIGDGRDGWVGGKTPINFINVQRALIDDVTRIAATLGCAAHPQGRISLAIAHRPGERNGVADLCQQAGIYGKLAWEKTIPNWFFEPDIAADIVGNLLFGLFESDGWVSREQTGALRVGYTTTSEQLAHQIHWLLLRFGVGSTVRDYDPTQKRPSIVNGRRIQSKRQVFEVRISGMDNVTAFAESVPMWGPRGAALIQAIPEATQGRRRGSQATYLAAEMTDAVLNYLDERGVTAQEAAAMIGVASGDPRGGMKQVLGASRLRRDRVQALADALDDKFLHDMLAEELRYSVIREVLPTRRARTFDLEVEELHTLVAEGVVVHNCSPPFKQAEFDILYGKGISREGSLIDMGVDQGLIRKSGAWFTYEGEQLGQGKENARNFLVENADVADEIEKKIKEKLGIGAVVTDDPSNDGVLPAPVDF

[1] = target: T2, Replicative DNA helicase DnaB (Mycobacterium tuberculosis, UniProt P9WMR3); assay: DnaB intein splicing inhibitors, dose response, biochemical, cell-free fluorescence (AID 449749); type: functional
T2 sequence (P9WMR3 whole entry): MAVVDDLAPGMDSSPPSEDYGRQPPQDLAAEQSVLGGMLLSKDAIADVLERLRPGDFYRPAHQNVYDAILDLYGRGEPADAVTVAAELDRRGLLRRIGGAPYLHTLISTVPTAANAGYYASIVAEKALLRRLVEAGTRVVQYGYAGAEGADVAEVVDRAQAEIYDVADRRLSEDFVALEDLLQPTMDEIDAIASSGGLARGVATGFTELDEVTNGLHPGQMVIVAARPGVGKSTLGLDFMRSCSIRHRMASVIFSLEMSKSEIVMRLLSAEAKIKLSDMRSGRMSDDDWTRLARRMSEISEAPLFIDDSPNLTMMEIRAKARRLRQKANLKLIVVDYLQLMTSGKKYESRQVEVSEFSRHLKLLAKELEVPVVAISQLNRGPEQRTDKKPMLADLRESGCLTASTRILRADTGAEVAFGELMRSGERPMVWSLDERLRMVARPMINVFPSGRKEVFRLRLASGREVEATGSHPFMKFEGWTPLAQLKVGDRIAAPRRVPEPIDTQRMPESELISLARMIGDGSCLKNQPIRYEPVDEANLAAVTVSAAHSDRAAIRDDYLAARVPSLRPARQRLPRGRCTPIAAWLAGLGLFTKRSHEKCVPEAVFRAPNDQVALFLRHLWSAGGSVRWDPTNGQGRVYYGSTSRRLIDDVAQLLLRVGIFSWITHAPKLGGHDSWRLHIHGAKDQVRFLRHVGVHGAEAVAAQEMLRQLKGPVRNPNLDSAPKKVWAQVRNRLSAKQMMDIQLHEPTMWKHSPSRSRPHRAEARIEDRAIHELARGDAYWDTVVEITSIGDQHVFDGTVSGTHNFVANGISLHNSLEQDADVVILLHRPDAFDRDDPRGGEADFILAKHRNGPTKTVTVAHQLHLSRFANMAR

[2] = microbe, parasite or virus in culture; type: functional; conditions: Mycobacterium tuberculosis
Cytochrome P450 2D6 = Cytochrome P450 2D6 (Homo sapiens, UniProt P10635);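 also: CYP2D6 member of a cytochrome P450 panel assay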
Cytochrome P450 2D6, sequence (P10635 whole entry): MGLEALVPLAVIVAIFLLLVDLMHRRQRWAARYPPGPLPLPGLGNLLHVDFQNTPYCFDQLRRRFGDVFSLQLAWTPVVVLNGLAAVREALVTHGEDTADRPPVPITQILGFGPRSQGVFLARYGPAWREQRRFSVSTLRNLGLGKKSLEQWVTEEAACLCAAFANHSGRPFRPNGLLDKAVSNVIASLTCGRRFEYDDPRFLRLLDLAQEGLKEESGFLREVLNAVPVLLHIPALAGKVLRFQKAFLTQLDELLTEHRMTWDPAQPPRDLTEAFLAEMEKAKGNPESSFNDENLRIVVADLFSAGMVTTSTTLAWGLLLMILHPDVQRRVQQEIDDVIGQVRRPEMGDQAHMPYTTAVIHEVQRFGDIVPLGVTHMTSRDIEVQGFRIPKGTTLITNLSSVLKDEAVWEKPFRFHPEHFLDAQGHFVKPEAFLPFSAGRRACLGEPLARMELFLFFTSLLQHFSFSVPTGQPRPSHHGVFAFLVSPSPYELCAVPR

Cytochrome P450 2C9 [3] = target: T3, Cytochrome P450 2C9 (Homo sapiens, UniProt P11712)
T3 sequence (P11712 whole entry): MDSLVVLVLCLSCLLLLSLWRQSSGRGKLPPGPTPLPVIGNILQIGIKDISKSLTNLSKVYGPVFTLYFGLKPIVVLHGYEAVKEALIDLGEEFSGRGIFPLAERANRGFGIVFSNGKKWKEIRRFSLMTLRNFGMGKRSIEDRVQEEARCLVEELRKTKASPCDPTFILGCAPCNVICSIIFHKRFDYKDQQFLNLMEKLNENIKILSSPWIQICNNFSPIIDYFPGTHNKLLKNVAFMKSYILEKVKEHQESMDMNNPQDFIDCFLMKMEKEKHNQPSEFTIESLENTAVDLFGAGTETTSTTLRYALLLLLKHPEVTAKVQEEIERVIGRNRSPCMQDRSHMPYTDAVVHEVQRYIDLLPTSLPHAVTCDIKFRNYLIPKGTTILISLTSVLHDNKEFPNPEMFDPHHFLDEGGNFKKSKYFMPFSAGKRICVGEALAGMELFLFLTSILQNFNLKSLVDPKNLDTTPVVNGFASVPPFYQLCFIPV

[4] = P. falciparum Dd2 growth inhibitors, dose response, SYBR Green, cherry-picked samples (AID 1159567); type: functional, cell-based
Cytochrome P450 3A4 = Cytochrome P450 3A4 (Homo sapiens, UniProt P08684);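 also: CYP3A4 tested as one member of a cytochrome P450 panel screen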
Cytochrome P450 3A4, sequence (P08684 whole entry): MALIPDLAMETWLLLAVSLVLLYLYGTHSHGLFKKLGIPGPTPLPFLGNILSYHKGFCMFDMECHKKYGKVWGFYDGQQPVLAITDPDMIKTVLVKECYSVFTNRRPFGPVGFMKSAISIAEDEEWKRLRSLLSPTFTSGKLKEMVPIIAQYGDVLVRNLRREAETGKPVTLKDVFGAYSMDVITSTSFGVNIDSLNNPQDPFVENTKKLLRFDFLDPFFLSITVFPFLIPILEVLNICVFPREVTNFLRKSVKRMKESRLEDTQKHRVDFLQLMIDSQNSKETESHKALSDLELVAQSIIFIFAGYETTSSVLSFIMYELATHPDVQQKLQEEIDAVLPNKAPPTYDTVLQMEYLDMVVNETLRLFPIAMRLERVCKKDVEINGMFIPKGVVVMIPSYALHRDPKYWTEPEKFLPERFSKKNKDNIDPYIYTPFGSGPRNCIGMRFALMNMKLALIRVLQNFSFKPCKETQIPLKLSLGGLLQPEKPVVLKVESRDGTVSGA

Cytochrome P450 2C19 = Cytochrome P450 2C19 (Homo sapiens, UniProt P33261); assay: Cytochrome panel assay with activity outcomes. Panel member name: p450-cyp2c19 Compounds with AC50 equal or less than 10 uM are considered active; type: functional
Cytochrome P450 2C19, sequence (P33261 whole entry): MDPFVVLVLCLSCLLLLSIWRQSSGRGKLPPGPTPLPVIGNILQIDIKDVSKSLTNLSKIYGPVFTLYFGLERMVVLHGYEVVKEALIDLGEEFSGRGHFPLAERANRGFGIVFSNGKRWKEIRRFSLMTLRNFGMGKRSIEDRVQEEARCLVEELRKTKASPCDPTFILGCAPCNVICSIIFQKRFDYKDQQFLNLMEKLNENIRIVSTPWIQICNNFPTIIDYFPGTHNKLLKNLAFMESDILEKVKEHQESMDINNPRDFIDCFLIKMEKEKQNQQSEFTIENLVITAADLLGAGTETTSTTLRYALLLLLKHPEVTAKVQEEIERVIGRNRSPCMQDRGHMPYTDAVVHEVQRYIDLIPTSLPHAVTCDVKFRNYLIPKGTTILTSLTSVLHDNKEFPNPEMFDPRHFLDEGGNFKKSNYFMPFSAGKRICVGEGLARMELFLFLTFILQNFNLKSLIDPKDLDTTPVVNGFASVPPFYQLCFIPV

Cytochrome P450 1A2 = target: T4, Cytochrome P450 1A2 (Homo sapiens, UniProt P05177);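 also: PubChem cytochrome P450 panel assay, CYP1A2 panel member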
T4 sequence (P05177 whole entry): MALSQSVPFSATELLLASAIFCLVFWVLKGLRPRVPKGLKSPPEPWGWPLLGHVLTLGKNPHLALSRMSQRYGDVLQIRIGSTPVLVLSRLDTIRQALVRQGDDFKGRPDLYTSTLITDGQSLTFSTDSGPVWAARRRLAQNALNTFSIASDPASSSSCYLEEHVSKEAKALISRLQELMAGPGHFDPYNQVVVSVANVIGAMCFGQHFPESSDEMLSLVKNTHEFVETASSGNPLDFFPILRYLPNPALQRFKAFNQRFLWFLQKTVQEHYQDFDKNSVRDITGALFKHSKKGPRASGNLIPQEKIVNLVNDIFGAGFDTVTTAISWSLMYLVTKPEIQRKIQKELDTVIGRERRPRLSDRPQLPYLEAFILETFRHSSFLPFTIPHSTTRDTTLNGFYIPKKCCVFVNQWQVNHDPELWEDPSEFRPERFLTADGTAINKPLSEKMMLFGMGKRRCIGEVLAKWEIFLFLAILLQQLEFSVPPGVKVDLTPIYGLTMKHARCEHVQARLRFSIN

Large T antigen = Large T antigen (Simian virus 40, UniProt P03070); type: functional, Betapolyomavirus macacae;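 also: Confirmatory-stage PubChem screen for compounds that inhibit SV40 T antigen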
Large T antigen, sequence (P03070 whole entry): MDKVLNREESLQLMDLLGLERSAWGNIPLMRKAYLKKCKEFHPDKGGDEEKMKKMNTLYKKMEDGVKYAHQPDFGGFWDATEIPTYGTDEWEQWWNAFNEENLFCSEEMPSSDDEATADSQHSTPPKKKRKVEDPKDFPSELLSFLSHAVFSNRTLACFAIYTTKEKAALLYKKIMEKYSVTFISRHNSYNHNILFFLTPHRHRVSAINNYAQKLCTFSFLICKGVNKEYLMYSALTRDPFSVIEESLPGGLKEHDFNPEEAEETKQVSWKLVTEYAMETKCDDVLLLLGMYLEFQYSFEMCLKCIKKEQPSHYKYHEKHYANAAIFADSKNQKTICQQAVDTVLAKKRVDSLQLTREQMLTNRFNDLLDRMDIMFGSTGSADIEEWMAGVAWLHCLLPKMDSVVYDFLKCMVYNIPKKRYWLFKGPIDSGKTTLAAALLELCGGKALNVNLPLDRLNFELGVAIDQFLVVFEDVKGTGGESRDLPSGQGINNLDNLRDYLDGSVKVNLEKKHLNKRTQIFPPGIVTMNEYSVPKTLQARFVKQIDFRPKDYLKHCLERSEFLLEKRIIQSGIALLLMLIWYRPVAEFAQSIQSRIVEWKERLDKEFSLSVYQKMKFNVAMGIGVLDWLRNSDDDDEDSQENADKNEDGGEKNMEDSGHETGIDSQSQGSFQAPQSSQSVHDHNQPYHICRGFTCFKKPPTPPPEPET

[5] = target: FAD-linked sulfhydryl oxidase ALR (Homo sapiens, UniProt P55789); assay: inhibitors of human ALR sulfhydryl oxidase, dose response, biochemical, H2O2 detection, luminescence, cherry-pick (AID 493248)
FAD-linked sulfhydryl oxidase ALR, sequence (P55789 whole entry): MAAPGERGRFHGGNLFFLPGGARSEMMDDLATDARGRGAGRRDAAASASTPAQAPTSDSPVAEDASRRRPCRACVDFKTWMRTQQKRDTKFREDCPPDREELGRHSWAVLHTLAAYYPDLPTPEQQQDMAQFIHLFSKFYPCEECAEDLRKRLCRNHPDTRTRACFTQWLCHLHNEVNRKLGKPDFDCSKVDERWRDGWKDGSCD

[6] = target: T5, Heat shock factor protein 1 (Mus musculus, UniProt P38532); assay: HSF1 potentiators in luciferase reporter cells, confirmation, cell-based, NIH3T3, luminescence, dose retest (AID 435004); type: functional;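 also: stress induced by proteasome inhibitor MG132 added 30 min after compound; luciferase reporter driven by HSF1 response element in NIH3T3 cells; actives raise luminescence as potentiators of the MG132 stress response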
T5 sequence (P38532 whole entry): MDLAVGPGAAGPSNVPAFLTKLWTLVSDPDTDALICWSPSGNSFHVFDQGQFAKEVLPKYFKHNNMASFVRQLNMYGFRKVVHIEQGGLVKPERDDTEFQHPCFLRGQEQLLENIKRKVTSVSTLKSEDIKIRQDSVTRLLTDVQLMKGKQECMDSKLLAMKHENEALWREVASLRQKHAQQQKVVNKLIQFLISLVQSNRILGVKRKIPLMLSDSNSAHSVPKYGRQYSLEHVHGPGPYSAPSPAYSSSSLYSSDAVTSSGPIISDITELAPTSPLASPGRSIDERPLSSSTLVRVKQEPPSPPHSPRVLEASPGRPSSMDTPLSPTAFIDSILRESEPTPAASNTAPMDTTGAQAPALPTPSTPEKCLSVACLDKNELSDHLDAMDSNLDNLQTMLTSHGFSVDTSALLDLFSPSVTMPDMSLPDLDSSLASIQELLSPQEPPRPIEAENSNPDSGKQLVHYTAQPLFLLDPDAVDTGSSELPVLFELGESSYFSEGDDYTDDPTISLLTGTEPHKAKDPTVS

Cytochrome P450 2C9 [7] = target: T3, Cytochrome P450 2C9; remark: listed apart in the source

Cc1cccc(S(=O)(=O)C(C#N)c2nc3ccccc3nc2N2CCCC2)c1 (configuration not stated)
EC50 (Protein RecA): > 380 µM (inactive)

Cc1nn(-c2ccccc2)c(O)c1/C=N/N1CCOCC1
EC50 (Protein RecA): 31.7 µM (active)
AC50 [1]: 39.3 µM (active)

Cn1c(=O)c(C(=O)NNC(=O)c2cccc(Cl)c2)c(O)c2ccccc21
CC50 [2]: > 40 µM (active)

Cc1ccc(S(=O)(=O)NC(CC(C)C)C(=O)Oc2ccc3c4c(c(=O)oc3c2)CCC4)cc1 (configuration not stated)
AC50 (Cytochrome P450 2D6): 15.8 µM (inconclusive)

Cc1cc(=O)oc2cc(Oc3ccc([N+](=O)[O-])cc3C(F)(F)F)ccc12
CC50 [2]: > 40 µM (active)

O=C(CCN1C(=O)c2cccc3cccc(c23)C1=O)N1CCN(Cc2ccc3c(c2)OCO3)CC1
AC50 (Cytochrome P450 2C9 [3]): inconclusive

COc1ccc(NC(=O)c2ccc(-c3ccc(-c4noc(C)n4)cc3C)cc2)cc1N1CCN(C)CC1 [GR-127935]
AC50 (Cytochrome P450 2D6): 20 µM (inconclusive) and 39.8 µM (inconclusive)

Cc1cnc(CNc2ncnc3ccc(-c4cccc(NS(C)(=O)=O)c4)cc23)cn1
AC50 (Cytochrome P450 2C9 [3]): inconclusive
AC50 (Cytochrome P450 2D6): 25.1 µM (inconclusive)

Cc1ccccc1-c1nc(C[S+]([O-])CC(=O)NCCCN(C)c2ccccc2)c(C)o1 (configuration not stated)
AC50 (Cytochrome P450 2C9 [3]): inconclusive
AC50 (Cytochrome P450 2D6): 25.1 µM (inconclusive)

COCC(=O)Nc1ccc2c(c1)OC[C@H](C)N(Cc1ccncc1)C[C@H](C)[C@@H](OC)CN(C)C2=O
AC50 [4]: 25.2 µM (active)

CCc1c(C)sc2nc3c(C(=O)N4CCOCC4)cc(C(=O)c4cc(F)ccc4O)cn3c(=O)c12
CC50 [2]: > 40 µM (active)

O=C1OCCC1Sc1nnc(-c2ccc(O)cc2)o1 (configuration not stated)
AC50 (Cytochrome P450 2C9 [3]): inconclusive
AC50 (Cytochrome P450 3A4): 7.08 µM (inconclusive)

CCOC(=O)N1CCN(C(=O)c2ccc(OC)c(OC)c2)CC1
AC50 (Cytochrome P450 2C9 [3]): inconclusive
AC50 (Cytochrome P450 2C19; read-out: AC50): 25.1 µM (inconclusive)

Cc1nc([N+](=O)[O-])c(Sc2nc3ccccc3[nH]2)n1Cc1ccccc1
EC50 (Protein RecA): 12.3 µM (active)
AC50 [1]: 15.3 µM (active)

CC1CCCC(C)N1C(=O)c1ccccc1Nc1ccc(SC(F)F)cc1 (configuration not stated)
AC50 (Cytochrome P450 2D6): 0.631 µM (inconclusive)
AC50 (Cytochrome P450 1A2): 17.8 µM (inconclusive)

COc1ccc(N(C(=O)COc2cccc(C)c2)S(=O)(=O)c2ccc(C)cc2)cc1
EC50 (Protein RecA): 4.53 µM (active)
AC50 [1]: 4.29 µM (active)

CC(=O)Nc1ccc(N2CCCCC2)cc1
IC50 (Large T antigen): 13.2 µM (active)
AC50 (Cytochrome P450 3A4): 0.251 µM (inconclusive)
AC50 [5]: 2.96 µM (active)

O=C(NCc1ccccn1)C(=O)NCC(c1ccco1)N1CCN(c2ccc(F)cc2)CC1 (configuration not stated)
AC50 [5]: 13.2 µM (active)

O=c1c(-c2cc(F)cc(F)c2)nc2cncnc2n1C1CC1
AC50 (Cytochrome P450 2C9 [3]): inconclusive
AC50 (Cytochrome P450 3A4): 7.94 µM (inconclusive)

O=C(Nc1ccc(Cl)cc1)N(Cc1nc(O)c2ccccc2n1)Cc1cccs1
CC50 [2]: > 40 µM (active)

CN(C)Cc1ccccc1-c1cncnc1NC1CC1
AC50 (Cytochrome P450 2D6): 25.1 µM (inconclusive)

COC(=O)c1ccc(/N=C2\C(Cl)=C(O)OC2OC(=O)c2ccccc2)cc1 (configuration not stated)
EC50 (Protein RecA): 17.8 µM (active)
AC50 [1]: 10.9 µM (active)

COc1ccc2nc(Nc3ccccc3OC)sc2c1
AC50 [5]: 1.71 µM (active)

COCc1n[nH]c2c1C(c1ccsc1)C(C#N)=C(N)O2 (configuration not stated)
EC50 (Protein RecA): 4.35 µM (active)
AC50 [1]: 21.1 µM (active)

O=C1CSC(c2ccccc2[N+](=O)[O-])N1c1cccc(F)c1 (configuration not stated)
AC50 [5]: 0.689 µM (active)

Cc1ccc(-c2csc(N)n2)s1
AC50 [5]: 0.732 µM (active)

COc1ccccc1NC(=O)N(C)C[C@H]1OCc2ccccc2-c2c(n(C)c3ccccc23)C(=O)N([C@@H](C)CO)C[C@@H]1C
AC50 [4]: 4.25 µM (active)

CCOC(=O)c1c(NC(C)=O)sc2c1CCC(/C=N/CCCN(CC)CC)=C2Sc1ccccc1
EC50 (Protein RecA): 0.229 µM (active)
AC50 [1]: 0.239 µM (active)
EC50 [6]: 16.6 µM (active)

Cc1nn(Cc2c(F)c(F)c(F)c(F)c2F)c(C)c1NC(=O)c1cccc(COc2ccccc2Cl)c1
AC50 (Cytochrome P450 2D6): 0.794 µM (inconclusive)
AC50 (Cytochrome P450 1A2): 17.8 µM (inconclusive)

CCC(=O)Nc1ccc2c(c1)OC[C@@H](C)N(Cc1ccccc1)C[C@@H](C)[C@H](OC)CN(C)C2=O
AC50 [4]: 5.57 µM (active)

OC(c1ccccc1)(c1ccccc1)C1CCNCC1 [AZACYCLONOL]
AC50 (Cytochrome P450 2D6): 15.8 µM (inconclusive)

CCCC(=O)Nc1ccc(N2CCN(CC)CC2)c(Cl)c1
AC50 (Cytochrome P450 2C9 [7]): 0.178 µM (inconclusive)
AC50 (Cytochrome P450 2D6): 20 µM (inconclusive)

N[C@@H](Cc1ncccn1)C(=O)O
AC50 (Cytochrome P450 2C9 [3]): inconclusive

COc1ccc2c3c(n(C)c2c1)[C@H](CO)N(C(=O)C1CC1)CC31CN(C(=O)C2CCOCC2)C1
AC50 [4]: 22.6 µM (active)

COc1ccc(C)cc1NC(=O)c1cc2cc3ccc(C)cc3nc2o1
AC50 (Cytochrome P450 2C9 [3]): inconclusive
AC50 (Cytochrome P450 1A2): 1.26 µM (inconclusive)

CCCOc1ccc(C(=O)OCCN(CC)CC)cc1N [PROPARACAINE]
AC50 (Cytochrome P450 2C19): inconclusive
AC50 (Cytochrome P450 2D6): 6.31 µM (inconclusive)

O=C(Nc1ccc(N2CCOCC2)cc1)Nc1ccc2nsnc2c1
EC50 (Protein RecA): > 380 µM (inactive)
AC50 [1]: 170 µM (active)
